From US20220227765A1, “PYRIDO-INDOLE ANALOGUES AS GPX4 INHIBITORS” (Ferro Therapeutics, Inc., priority 2019, published 2022)
Converted amounts (≈) assume the structure as drawn. Read-outs that look alike come from different tables or passages of the source.

How the values were obtained:
[1] = Rat hepatocyte metabolic stability; format: in vitro ADME
786-O = assay: Cell proliferation (Alamar Blue) assay, 786-O; format: cell-based, human; settings: Table B-3, 786-O cells
How it was run: (§1)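 Cells were seeded at 5000 cells/well and grown 16-24 h at 37° C./5% CO2. They were treated 24 h with compound at 10-0.0005 μM (3-fold dilutions, 1% DMSO). Viability was read by Alamar Blue fluorescence (ex 540/em 590 nm) after 1.5 h, and IC50 came from a variable-slope sigmoidal fit.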

Human blood stability = format: in vitro ADME
[2] = Kinetic solubility (PBS, pH 7.4); format: physicochemical; settings: aqueous buffer, kinetic from dmso stock, Table B-4
A431 = assay: Cell proliferation (Alamar Blue) assay, A431; format: cell-based, human; settings: Homo sapiens, A-431, 24 h, Table B-3, A431 cells
How it was run: as §1

[3] = Protein binding - free drug % (mouse); format: in vitro ADME
SJSA-1 = assay: Cell proliferation (Alamar Blue) assay, SJSA-1; format: cell-based, human; settings: Table B-3, head prints SJSB-1, 24 h, read-out: IC50 (μM) SJSB-1
How it was run: as §1

[4] = Human hepatocyte metabolic stability; format: in vitro ADME
[5] = Bound/unbound drug and % remaining in CD-1 mouse plasma; settings: 2 μM

C#CC(=O)N1[C@@H](CCCC)Cc2c([nH]c3c(F)cc(F)cc23)[C@@H]1c1ccc(NC(=O)OCCCCC)cc1 [Compound B-25]
rat hepatocytes extr. Ratio [1]: 0.61 | rat hepatocytes % met @ 180 min ([1]; 180 min): 57% | half-life ([1]; rat hepatocytes, read-out: rat hepatocytes T1/2): 2.52 h | hepatocyte CLint ([1]; rat hepatocytes, read-out: rat hepatocytes h Clintr (μL/min/10^6 cells)): 18 µL/min/1e6 cells | IC50 (786-O; 24 h): 0.012 µM | human blood stability % remaining (Human blood stability; 15 min): 80%_15 | human blood stability % remaining (Human blood stability; 30 min): 38%_30 | human blood stability % remaining (Human blood stability; 45 min): 28%_45 | human blood stability % remaining (Human blood stability; 60 min): 18%_60 | human blood stability % remaining (Human blood stability; 120 min): 0%_120 | solubility kinetic [2]: 1 µM (≈ 0.522 µg/mL) | IC50 (A431): 1.1 µM | fraction unbound [3]: 0.094 | IC50 (SJSA-1): 0.009 µM | human hepatocytes extr. Ratio [4]: 0.61 | human hepatocytes % met @ 180 min ([4]; 180 min): 42% | half-life ([4]; human hepatocytes, read-out: human hepatocytes T1/2): 4.08 h | hepatocyte CLint ([4]; human hepatocytes, read-out: human hepatocytes h Clintr (μL/min/10^6 cells)): 11 µL/min/1e6 cells

C#CC(=O)N1[C@@H](CCCC)Cc2c([nH]c3c(F)cc(F)cc23)[C@@H]1c1ccc(C(C)(C)O)cc1 [Compound B-55]
IC50 (786-O; Homo sapiens, 786-0, 24 h): 0.04 µM | % Remaining (t = 4 hr at 37 C.) [5]: 21.5% | IC50 (A431): > 10 µM | IC50 (SJSA-1; Homo sapiens, SJSA-1, 24 h): 0.053 µM
